Data taken from PubChem BioAssay AID248 (DTP/NCI, 2004).
Inconclusive results and toxic doses are left out. Rule as the data show it: active = T/C of 150% or more; inactive = T/C below 125%.

Test system: L1210 leukemia ip in BDF1 mice, survival T/C
Experiment: NCI In Vivo Anticancer Drug Screen. Data for tumor model L1210 Leukemia (intraperitoneal) in B6D2F1 (BDF1) mice
Conditions: endpoint: mean survival time, higher = longer survival
How it was run: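 Tumor cells were implanted, animals were treated, and survival was followed. The result divides the treated measurement by the vehicle-control measurement.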

Measured: T/C

CC(CC(=O)c1cc(Cl)ccc1O)CC(C)(C)C (centres undefined)
inactive: dose: 75.0 mg/kg/injection, schedule: Q01DX009 (ip), vehicle: Klucel (hydroxypropylcellulose) (HPC) 114 % of control | dose: 100.0 mg/kg/injection, schedule: Q04DX002 (ip), vehicle: Klucel (hydroxypropylcellulose) (HPC) 97 % of control | dose: 150.0 mg/kg/injection, schedule: Q01DX009 (ip), vehicle: Klucel (hydroxypropylcellulose) (HPC) 97 % of control | dose: 200.0 mg/kg/injection, schedule: Q04DX002 (ip), vehicle: Klucel (hydroxypropylcellulose) (HPC) 93 % of control | dose: 300.0 mg/kg/injection, schedule: Q01DX009 (ip), vehicle: Klucel (hydroxypropylcellulose) (HPC) 100 % of control | dose: 400.0 mg/kg/injection, schedule: Q04DX002 (ip), vehicle: Klucel (hydroxypropylcellulose) (HPC) 104 % of control

S=c1[nH]c2nc(Cl)c(Cl)nc2[nH]1
inactive: dose: 50.0 mg/kg/injection, schedule: Q01DX009 (ip), vehicle: saline with Tween-80 95 % of control | dose: 100.0 mg/kg/injection, schedule: Q01DX009 (ip), vehicle: saline with Tween-80 91 % of control | dose: 100.0 mg/kg/injection, schedule: Q04DX003 (ip), vehicle: saline with Tween-80 97 % of control | dose: 200.0 mg/kg/injection, schedule: Q01DX009 (ip), vehicle: saline with Tween-80 100 % of control | dose: 200.0 mg/kg/injection, schedule: Q04DX003 (ip), vehicle: saline with Tween-80 102 % of control

CC12CCCCC1(OC(=O)c1ccc([N+](=O)[O-])cc1)CCCC2 (centres undefined)
inactive: dose: 75.0 mg/kg/injection, schedule: Q04DX002 (ip), vehicle: saline with Tween-80 100 % of control | dose: 150.0 mg/kg/injection, schedule: Q04DX002 (ip), vehicle: saline with Tween-80 104 % of control | dose: 300.0 mg/kg/injection, schedule: Q04DX002 (ip), vehicle: saline with Tween-80 88 % of control
